pIC50: −log10 of the molar value.
biological target: T1, neutrophil elastase (Homo sapiens, UniProt P08246); test: Human Neutrophil Elastase Assay; assay type: biochemical; set-up: purchased Calbiochem 324681; details: substrate MeOSuc-Ala-Ala-Pro-Val-AMC, pH 7.5, room temperature
T1 sequence (P08246 30-247 limits assumed): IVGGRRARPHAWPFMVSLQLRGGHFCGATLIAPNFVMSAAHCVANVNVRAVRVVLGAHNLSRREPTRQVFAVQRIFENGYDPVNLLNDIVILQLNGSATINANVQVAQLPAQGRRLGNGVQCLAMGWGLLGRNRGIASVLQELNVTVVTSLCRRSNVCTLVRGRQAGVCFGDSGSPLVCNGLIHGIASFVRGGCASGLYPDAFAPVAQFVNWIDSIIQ
Description: Human Neutrophil Elastase Assay
Materials: Human neutrophil elastase was purchased from Calbiochem (Cat.No.: 324681) and the elastase substrate MeOSuc-Ala-Ala-Pro-Val-AMC from Bachem (Cat.No.: I-1270). All other materials were of the highest grade commercially available.
The following buffers were used: Compound buffer: 100 mM Tris, 500 mM NaCl, adjusted to pH 7.5; Assay buffer: 100 mM Tris, 500 mM NaCl, adjusted to pH 7.5, containing 0.01% BSA.
Assay conditions: Test compounds were prediluted in DMSO and subsequently in compound buffer (5% DMSO final). 5 μL of these compound dilutions were mixed with 10 μl Neutrophil elastase (9 ng/ml in assay buffer) in a black 384 well OptiPlate (Perkin Elmer, Cat No.: 6007270) and incubated for 15 min at room temperature. Subsequently 10 μL substrate solution in assay buffer were added (250 nM final concentration) and the plates were incubated for 60 min at room temperature. After inactivation of the enzyme, fluorescence intensities were measured at 380 nm excitation and 460 nm emission wavelengths.
Each plate contains wells with a high value control (DMSO+enzyme+substrate) and wells with a low value control (DMSO+inactivated enzyme+substrate). IC50 values were estimated using a sigmoidal concentration response curve with variable slope. Means of low values were taken as 0%, means of high values as 100%.

SMILES | pIC50
Cn1ncc2c1CN(C(=O)CN1C(=O)N(c3cccc(C(F)(F)F)c3)C3=C(C(=O)CCC3)C1c1ccc(C#N)cc1)C2 (centres unmarked) [Example 35, 4-(3-(2-(1-Methylpyrrolo[3,4-c]pyrazol-5(1H,4H,6H)-yl)-2-oxoethyl)-2,5-dioxo-1-(3-(trifluoromethyl)phenyl)-1,2,3,4,5,6,7,8-octahydroquinazolin-4-yl)benzonitrile] | 8.77
COC1CCN(C(=O)CN2C(=O)N(c3cccc(C(F)(F)F)c3)C3=C(C(=O)CCC3)C2c2ccc(C#N)cc2)CC1 (centres unmarked) [Example 36.40] | 8.51
N#Cc1ccc(C2C3=C(CCCC3=O)N(c3cccc(C(F)(F)F)c3)C(=O)N2CC(=O)NCC2CCOC2)cc1 (centres unmarked) [Example 36.22] | 8.17
Cn1nccc1CN1C(=O)N(c2cccc(C(F)(F)F)c2)C2=C(C(=O)CCC2)C1c1ccc(C#N)cc1 (centres unmarked) [Example 24.1] | 8.18
N#Cc1ccc(C2NC(=O)N(c3cccc(C(F)(F)F)c3)C3=C2C(=O)CC(C(N)=O)C3)cc1 (centres unmarked) [Example 12, 4-(4-Cyanophenyl)-2,5-dioxo-1-(3-(trifluoromethyl)phenyl)-1,2,3,4,5,6,7,8-octahydroquinazoline-7-carboxamide] | 7.36
CS(=O)(=O)c1cc(C#N)ccc1C1C2=C(CCCC2=O)N(c2cccc(C(F)(F)F)c2)C(=O)N1C(=O)NCCO (centres unmarked) [Example 47.2] | > 9.00
CCNC(=O)N1C(=O)N(c2cccc(C(F)(F)F)c2)C2=C(C(=O)CCC2)C1c1ccc(C#N)cc1C (centres unmarked) [Example 74, 4-(4-Cyano-2-methylphenyl)-N-ethyl-2,5-dioxo-1-(3-(trifluoromethyl)phenyl)-1,2,5,6,7,8-hexahydroquinazoline-3(4H)-carboxamide] | > 9.00
COCCNC(=O)CN1C(=O)N(c2cccc(C(F)(F)F)c2)C2=C(C(=O)CCC2)C1c1ccc(C#N)cc1 (centres unmarked) [Example 36.5] | 7.87
N#Cc1ccc(C2C3=C(CCCC3=O)N(c3cccc(C(F)(F)F)c3)C(=O)N2CC(N)=O)cc1 (centres unmarked) [Example 33, 2-(4-(4-Cyanophenyl)-2,5-dioxo-1-(3-(trifluoromethyl)phenyl)-1,2,5,6,7,8-hexahydroquinazolin-3(4H)-yl)acetamide] | 8.02
N#Cc1ccc(C2C3=C(CCCC3=O)N(c3cccc(C(F)(F)F)c3)C(=O)N2C(N)=O)cc1 (centres unmarked) [Example 70, 4-(4-Cyanophenyl)-2,5-dioxo-1-(3-(trifluoromethyl)phenyl)-1,2,5,6,7,8-hexahydroquinazoline-3(4H)-carboxamide] | 8.22
N#Cc1ccc(C2C3=C(CCCC3=O)N(c3cccc(C(F)(F)F)c3)C(=O)N2CC(=O)N2CCn3cncc3C2)cc1 (centres unmarked) [Example 36.49] | 8.59
N#Cc1ccc(C2C3=C(CCCC3=O)N(c3cccc(C(F)(F)F)c3)C(=O)N2CC(=O)N2Cc3cccnc3C2)cc1 (centres unmarked) [Example 36.46] | 8.92
CCNC(=O)N1C(=O)N(c2cccc(C(F)F)c2)C2=C(C(=O)CCC2)C1c1ccc(C#N)cc1S(C)(=O)=O (centres unmarked) [Example 51, 4-(4-Cyano-2-(methylsulfonyl)phenyl)-1-(3-(difluoromethyl)phenyl)-N-ethyl-2,5-dioxo-1,2,5,6,7,8-hexahydroquinazoline-3(4H)-carboxamide] | > 9.00
CS(=O)(=O)c1cc(C#N)ccc1[C@@H]1C2=C(CCCC2=O)N(c2cccc(C(F)(F)F)c2)C(=O)N1C(=O)NC1CCOC1 (some centres unmarked) [Example 75.10] | > 9.00
N#Cc1ccc(C2C3=C(CCCC3=O)N(c3cccc(C(F)(F)F)c3)C(=O)N2S(=O)(=O)c2csc(C(=O)O)c2)cc1 (centres unmarked) [Example 46, 4-(4-(4-Cyanophenyl)-2,5-dioxo-1-(3-(trifluoromethyl)phenyl)-1,2,5,6,7,8-hexahydroquinazolin-3(4H)-ylsulfonyl)thiophene-2-carboxylic acid] | 7.67
N#Cc1ccc(C2C3=C(CCCC3=O)N(c3cccc(C(F)(F)F)c3)C(=O)N2CC(=O)N2CCC3(CC2)CNC(=O)O3)cc1 (centres unmarked) [Example 36.74] | 8.68
N#Cc1ccc(C2C3=C(CCCC3=O)N(c3cccc(C(F)(F)F)c3)C(=O)N2CC(=O)NCC2CC2)cc1 (centres unmarked) [Example 36.3] | 7.68
